Common to all, as to type: functional
The test system of test [1] is Escherichia coli. The test is described as follows: Antibacterial activity against Escherichia coli assessed as bacterial growth inhibition by agar streak dilution assay.
Test [2] deals with Klebsiella pneumoniae. The experiment in a line: Antibacterial activity against Klebsiella pneumoniae assessed as bacterial growth inhibition by agar streak dilution assay.
The subject of test [3] is Staphylococcus aureus. The experiment in a line: Antibacterial activity against Staphylococcus aureus assessed as bacterial growth inhibition by agar streak dilution assay.
The test system of test [4] is Staphylococcus aureus. The test is described as follows: Antibacterial activity against clinical isolate methicillin resistant Staphylococcus aureus assessed as bacterial growth inhibition by microdilution assay. On the technique in general: Broth dilution looks for growth in wells or tubes with falling amounts of substance.
In test [5] the test system is Staphylococcus aureus. The experiment in a line: Antibacterial activity against Staphylococcus aureus ATCC 25923 assessed as bacterial growth inhibition by microdilution assay.
Test [6] concerns Staphylococcus aureus. The test is described as follows: Antibacterial activity against Staphylococcus aureus assessed as bacterial growth inhibition by agar cup diffusion assay.
Test [7] deals with Staphylococcus aureus. The test is described as follows: Potency index, ratio of ciprofloxacin MIC to test compound MIC for antimicrobial activity against Staphylococcus aureus assessed as bacterial growth inhibition by agar cup diffusion assay.
Test [8] has as its system Staphylococcus aureus. The test is described as follows: Antibacterial activity against Staphylococcus aureus assessed as bacterial growth inhibition by broth microdilution assay.
In test [9] the test system is Escherichia coli. The experiment in a line: Antibacterial activity against Escherichia coli assessed as bacterial growth inhibition by broth microdilution assay.
Test [10] deals with Staphylococcus aureus. The experiment in a line: Potency index, ratio of norfloxacin MIC to test compound MIC for antimicrobial activity against Staphylococcus aureus assessed as bacterial growth inhibition measured after 18 to 24 hrs inhibition by broth microdilution assay. The note with it: time 18-24 hrs.
The test system of test [11] is Pseudomonas aeruginosa. The experiment in a line: Antibacterial activity against Pseudomonas aeruginosa assessed as bacterial growth inhibition by broth microdilution assay.
In test [12] the test system is Klebsiella pneumoniae. The test is described as follows: Antibacterial activity against Klebsiella pneumoniae assessed as bacterial growth inhibition by two fold microdilution assay.
Test [13] relates to Escherichia coli. The experiment in a line: Antibacterial activity against Escherichia coli ATCC 8739 assessed as bacterial growth inhibition by two fold microdilution assay.
Test [14] concerns Staphylococcus aureus. The test is described as follows: Antibacterial activity against Staphylococcus aureus ATCC 6538P assessed as bacterial growth inhibition by two fold microdilution assay.
The test system of another test is Acinetobacter baumannii. The test is described as follows: Antibacterial activity against Acinetobacter baumannii assessed as bacterial growth inhibition by agar dilution assay.
The test system of test [15] is Pseudomonas aeruginosa. The test is described as follows: Antibacterial activity against Pseudomonas aeruginosa ATCC 27853 assessed as bacterial growth inhibition by agar dilution assay. (Agar dilution tests growth on a series of plates holding different concentrations.)
Test [16] has as its system Staphylococcus aureus. The experiment in a line: Antibacterial activity against Staphylococcus aureus assessed as bacterial growth inhibition by agar dilution assay.
In test [17] the test system is Staphylococcus aureus. The experiment in a line: Antibacterial activity against methicillin resistant Staphylococcus aureus assessed as bacterial growth inhibition by agar dilution assay.
Test [18] deals with Klebsiella pneumoniae. The experiment in a line: Antibacterial activity against Klebsiella pneumoniae AUMC B-77 assessed as bacterial growth inhibition by agar cup diffusion method.
Test [19] relates to Escherichia coli. The test is described as follows: Antibacterial activity against Escherichia coli assessed as bacterial growth inhibition by agar cup diffusion assay.
The subject of test [20] is Pseudomonas aeruginosa. The experiment in a line: Antibacterial activity against Pseudomonas aeruginosa assessed as bacterial growth inhibition by agar cup diffusion assay.
In test [21] the test system is Klebsiella pneumoniae. The experiment in a line: Antibacterial activity against Klebsiella pneumoniae assessed as bacterial growth inhibition by agar cup diffusion assay.
Test [22] has as its system Escherichia coli. The test is described as follows: Potency index, ratio of ciprofloxacin MIC to test compound MIC for antimicrobial activity against Escherichia coli assessed as bacterial growth inhibition by agar cup diffusion assay.
Test [23] concerns Mycobacterium tuberculosis. The experiment in a line: Antimycobacterial activity against Mycobacterium tuberculosis H37Rv assessed as bacterial growth inhibition by agar cup diffusion assay.
The subject of test [24] is Mycobacterium tuberculosis. The experiment in a line: Antimycobacterial activity against pan sensitive Mycobacterium tuberculosis R2012-123 assessed as bacterial growth inhibition by agar cup diffusion assay.
Test [25] has as its system Staphylococcus aureus. The experiment in a line: Antibacterial activity against methicillin resistant Staphylococcus aureus assessed as bacterial growth inhibition by agar cup diffusion assay.
For test [26], the system named is Mycobacterium tuberculosis. The test is described as follows: Antimycobacterial activity against Mycobacterium tuberculosis H37Rv assessed as bacterial growth inhibition by broth microdilution assay.
In another test the test system is Aspergillus niger. The experiment in a line: Antifungal activity against Aspergillus niger assessed as fungal growth inhibition by agar well diffusion assay. For orientation: In agar diffusion tests the substance spreads into inoculated agar from a disc or well.
Another test relates to Candida albicans. The experiment in a line: Antifungal activity against Candida albicans assessed as fungal growth inhibition by agar well diffusion assay.
Test [27] has as its system Escherichia coli. The experiment in a line: Antibacterial activity against Escherichia coli ATCC35218 assessed as bacterial growth inhibition measured after 18 to 24 hrs inhibition by broth microdilution assay. The settings on record: time 18-24 hrs.
The test system of test [28] is Pseudomonas aeruginosa. The experiment in a line: Antibacterial activity against Pseudomonas aeruginosa ATCC43288 assessed as bacterial growth inhibition measured after 18 to 24 hrs inhibition by broth microdilution assay. The note with it: time 18-24 hrs.
Test [29] deals with Pseudomonas aeruginosa. The test is described as follows: Antibacterial activity against Pseudomonas aeruginosa […] assessed as bacterial growth inhibition measured after 18 to 24 hrs inhibition by broth microdilution assay. The note with it: time 18-24 hrs.

The text below walks through data of ChEMBL document CHEMBL5360532, “Current scenario of quinolone hybrids with potential antibacterial activity against ESKAPE pathogens” (Eur J Med Chem, 2023).

The term MIC denotes the lowest concentration that inhibits growth of the organism.

≈ marks a conversion by molar mass, not a printed value. A value given as a limit tells only on which side of the number the result lay.

`CNc1ccc([S+]([O-])N2CCN(c3c(F)c(C)c4c(=O)c(C(=O)O)cn(C5CC5)c4c3OC)CC2C)cc1C` (stereo not drawn): the MIC with Escherichia coli [1], in the test with Klebsiella pneumoniae [2] and in the test on Staphylococcus aureus [3] was 0.9 µg/mL (≈ 1.62 µM) in each case.
On to `COc1c(N2C[C@H]3CCCN(S(=O)(=O)c4ccc(F)cc4)[C@H]3C2)c(F)cc2c(=O)c(C(=O)O)cn(C3CC3)c12`, for which the MIC in the test on Staphylococcus aureus [4] and in the test on Staphylococcus aureus [5] was less than 2.64 µg/mL each time.
`O=C(O)c1cn(C2CC2)c2cc(N3CCN(Cc4nnc(-c5cccc(O)c5)o4)CC3)c(F)cc2c1=O`: the results for the minimum inhibitory concentration (MIC) in the test on Staphylococcus aureus [6], in the test on Staphylococcus aureus [8] and with Escherichia coli [9] were 0.3 µg/mL (≈ 0.593 µM), 0.125 µg/mL (≈ 0.247 µM) and not above 0.125 µg/mL, respectively. Also, the Ratio result in the test on Staphylococcus aureus [7] and in the test on Staphylococcus aureus [10] was “>=4” throughout.
For `CCn1cc(C(=O)O)c(=O)c2cc(F)c(N3CCNCC3)cc21` [NORFLOXACIN], the MIC in the test on Staphylococcus aureus [8], in the test on Escherichia coli [9], with Pseudomonas aeruginosa [11], in the test on Klebsiella pneumoniae [12], in the test with Escherichia coli [13] and in the test with Staphylococcus aureus [14] was not above 0.125 µg/mL each time. The minimum inhibitory concentration (MIC) was not below 4 µg/mL in the test on Acinetobacter baumannii; not below 4 µg/mL in the test with Pseudomonas aeruginosa [15]; not below 4 µg/mL with Staphylococcus aureus [16]; not below 4 µg/mL in the test on Staphylococcus aureus [17]; 0.5 µg/mL (≈ 1.57 µM) in the test with Klebsiella pneumoniae [18].
As to `O=C(CN1CCN(c2cc3c(cc2F)c(=O)c(C(=O)O)cn3C2CC2)CC1)Nc1nnc(-c2ccccc2)s1`, the MIC in the test with Escherichia coli [19] was found to be 1.12 µg/mL (≈ 2.04 µM); in the test on Pseudomonas aeruginosa [20], 7.4 µg/mL (≈ 13.5 µM); with Klebsiella pneumoniae [21], 1.12 µg/mL (≈ 2.04 µM); with Staphylococcus aureus [6], 1.12 µg/mL (≈ 2.04 µM); in test [23], 8 µg/mL (≈ 14.6 µM); in test [24], 8 µg/mL (≈ 14.6 µM). In addition, the Ratio in the test on Staphylococcus aureus [7] and with Escherichia coli [22] was 4.6 throughout.
Turning to `O=C(O)c1cn(C2CC2)c2cc(N3CCN(C(=O)CN4C(=O)S/C(=C\c5ccccc5)C4=O)CC3)c(F)cc2c1=O`, the MIC with Staphylococcus aureus [6] is 0.005 µg/mL (≈ 0.00867 µM); in the test on Staphylococcus aureus [25] it was 0.02 µg/mL (≈ 0.0347 µM).
As to `CCn1cc(C(=O)O)c(=O)c2cc(F)c(N3CCN(CC(=O)Nc4ccc(/C(C)=N/O)cc4)CC3)cc21`, the MIC in the test on Klebsiella pneumoniae [18] was found to be 0.08 µg/mL (≈ 0.157 µM).
On to `COc1c(N2CCN([S+]([O-])c3ccc(N)c(C)c3)C(C)C2)c(F)c(C)c2c(=O)c(C(=O)O)cn(C3CC3)c12` (stereo not drawn), for which the minimal inhibitory concentration (MIC) with Escherichia coli [1], in the test with Klebsiella pneumoniae [2] and with Staphylococcus aureus [3] was 0.9 µg/mL (≈ 1.66 µM) each time.
`COc1c(N2C[C@H]3CCCN(S(=O)(=O)c4ccccc4)[C@H]3C2)c(F)cc2c(=O)c(C(=O)O)cn(C3CC3)c12`: the MIC with Staphylococcus aureus [4] and in the test with Staphylococcus aureus [5] was less than 2.64 µg/mL in each case.
As to `O=C(O)c1cn(C2CC2)c2cc(N3CCN(Cc4nnc(-c5ccc(O)cc5)o4)CC3)c(F)cc2c1=O`, the figures for the MIC with Staphylococcus aureus [6], with Staphylococcus aureus [8] and in the test on Escherichia coli [9] were 0.2 µg/mL (≈ 0.396 µM), 0.125 µg/mL (≈ 0.247 µM) and not above 0.125 µg/mL, respectively. The Ratio result in the test with Staphylococcus aureus [7] and in the test with Staphylococcus aureus [10] was “>=4” each time.
As to `CO[C@H]1/C=C/O[C@@]2(C)Oc3c(C)c(O)c4c(O)c(c(/C=N/N5CCN(C)CC5)c(O)c4c3C2=O)NC(=O)/C(C)=C\C=C\[C@H](C)[C@H](O)[C@@H](C)[C@@H](O)[C@@H](C)[C@H](OC(C)=O)[C@@H]1C` [RIFAMPIN], the MIC in test [26] stood at 1 µg/mL (≈ 1.22 µM).
With `Clc1ccccc1C(c1ccccc1)(c1ccccc1)n1ccnc1` [CLOTRIMAZOLE], the results for the MIC in the test on Aspergillus niger and in the test with Candida albicans were 1.56 µg/mL (≈ 4.52 µM) and 1.28 µg/mL (≈ 3.71 µM), respectively.
Turning to `O=C(O)c1cn(C2CC2)c2cc(N3CCN(Cn4nc(CN5CCN(c6ccc([N+](=O)[O-])cc6)CC5)oc4=S)CC3)c(F)cc2c1=O`, the MIC with Escherichia coli [27], in the test on Pseudomonas aeruginosa [28] and in the test on Pseudomonas aeruginosa [29] was 0.03 µg/mL (≈ 0.0451 µM) in each case.
